Assay results published in US9737587B2, “Treatment of autism spectrum disorders with ciliary neurotrophic factor peptide mimetic” (The Research Foundation for Mental Hygiene, Inc., priority 2014, dated 2017).
One block for each molecule: values may come before it. No end group written: not given here.

Experiments:
mice or rats = details: in vivo
human = human clinical trials; cited from earlier work

half-life (in vivo): > 6 h
Molecule: VGDGGLFEKKL [Peptide P6, VGDGGLFEKKL]
adverse effects associated with the full-length protein (CNTF) (mice or rats): does not cause adverse effects associated with the full-length protein

B1: recombinant CNTF: recombinant full-length ciliary neurotrophic factor (protein, UniProt P26441 1-200, looked up)
chain: MAFTEHSPLTPHRRDLCSRSIWLARKIRSDLTALTESYVKHQGLNKNINLDSADGMPVASTDQWSELTEAERLQENLQAYRTFHVLLARLLEDQQVHFTPTEGDFHQAIHTLLLQVAAFAYQIEELMILLEYKIPRNEADGMPINVGDGGLFEKKLWGLKVLQELSQWTVRSIHDLRFISSHQTGIPARGSHYIANNKKM
modifications: full-length
notes: recombinant full-length ciliary neurotrophic factor
adverse effects (human): anorexia, skeletal muscle loss, hyperalgesia, severe cramps, and muscle pain
